In ChEMBL document CHEMBL3885861, “Open TG-GATES”:

Organism: Rattus norvegicus
Assay: Open TG-GATES - Regimen: Single
Format: toxicity, organism-based, Sprague-Dawley
Set-up: regimen Single, gender Male, age 6 weeks
Conditions: in vivo, po, 150 mg/kg, route gavage, dose level High; for APTT / Bas / Eos / Fbg / Hb / Ht / Lym / MCH / MCHC / MCV / Mono / Neu / PT / Plat / RBC / Ret / WBC: tissue Blood; for KIDNEY_L / KIDNEY_R / KIDNEY_TOTAL: tissue Kidney; for LIVER: tissue Liver; for A/G / ALP / ALT / AST / BUN / CRE / Ca / Cl / DBIL / GLC / IP / K / LDH / Na / PL / RALB / TBIL / TC / TG / TP / gamma-GTP: tissue Plasma

## O=c1ccc2ccccc2o1 [COUMARIN]
3 h
  TERMINAL_BW: 182 g
  APTT: 16 s
  Bas: 0%
  Eos: 0.6%
  Fbg: 201.2 mg/dL
  Hb: 13.9 g/dL
  Ht: 42.2%
  Lym: 73.6%
  MCH: 22.2 pg
  MCHC: 33%
  MCV: 67.3 fL
  Mono: 5%
  Neu: 20.8%
  PT: 12.6 s
  Plat: 131.8 x10_4/uL
  RBC: 627.6 x10_4/ul
  Ret: 9.9%
  WBC: 86 x10_2/uL
  KIDNEY_L: 0.8 g
  KIDNEY_R: 0.9 g
  KIDNEY_TOTAL: 1.7 g
  LIVER: 8.3 g
  A/G: 2.1
  ALP: 1017.8 IU/L
  ALT: 45.4 IU/L
  AST: 76.4 IU/L
  BUN: 11.4 mg/dL
  CRE: 0.4 mg/dL
  Ca: 10.7 mg/dL
  Cl: 100.6 meq/L
  DBIL: 0 mg/dL
  GLC: 220.8 mg/dL
  IP: 11.2 mg/dL
  K: 4.3 meq/L
  LDH: 175 IU/L
  Na: 137.8 meq/L
  PL: 158.4 mg/dL
  RALB: 3.8 g/dL
  TBIL: 0.2 mg/dL
  TC: 89.6 mg/dL
  TG: 53 mg/dL
  TP: 5.7 g/dL
  gamma-GTP: 1.6 IU/L
6 h
  TERMINAL_BW: 176.6 g
  APTT: 16.5 s
  Bas: 0%
  Eos: 0.6%
  Fbg: 210.4 mg/dL
  Hb: 14.8 g/dL
  Ht: 44.4%
  Lym: 68.4%
  MCH: 21.4 pg
  MCHC: 33.2%
  MCV: 64.4 fL
  Mono: 7.4%
  Neu: 24.2%
  PT: 13 s
  Plat: 111.1 x10_4/uL
  RBC: 690.2 x10_4/ul
  Ret: 8.7%
  WBC: 61.8 x10_2/uL
  KIDNEY_L: 0.8 g
  KIDNEY_R: 0.8 g
  KIDNEY_TOTAL: 1.6 g
  LIVER: 7.3 g
  A/G: 2.2
  ALP: 951.6 IU/L
  ALT: 45.2 IU/L
  AST: 77.6 IU/L
  BUN: 16 mg/dL
  CRE: 0.5 mg/dL
  Ca: 10.3 mg/dL
  Cl: 102.4 meq/L
  DBIL: 0.008 mg/dL
  GLC: 190.6 mg/dL
  IP: 10.1 mg/dL
  K: 4.5 meq/L
  LDH: 203.2 IU/L
  Na: 138 meq/L
  PL: 144.2 mg/dL
  RALB: 4 g/dL
  TBIL: 0.2 mg/dL
  TC: 94.4 mg/dL
  TG: 23.4 mg/dL
  TP: 5.9 g/dL
  gamma-GTP: 1.4 IU/L
9 h
  TERMINAL_BW: 175.4 g
  APTT: 16.4 s
  Bas: 0%
  Eos: 1%
  Fbg: 196.4 mg/dL
  Hb: 14.5 g/dL
  Ht: 43.8%
  Lym: 76.8%
  MCH: 21.6 pg
  MCHC: 33.1%
  MCV: 65.2 fL
  Mono: 8%
  Neu: 14.4%
  PT: 13.2 s
  Plat: 100.6 x10_4/uL
  RBC: 672.6 x10_4/ul
  Ret: 9.7%
  WBC: 79.6 x10_2/uL
  KIDNEY_L: 0.8 g
  KIDNEY_R: 0.8 g
  KIDNEY_TOTAL: 1.6 g
  LIVER: 7.3 g
  A/G: 2.1
  ALP: 950 IU/L
  ALT: 37.4 IU/L
  AST: 75.8 IU/L
  BUN: 15.2 mg/dL
  CRE: 0.5 mg/dL
  Ca: 10.6 mg/dL
  Cl: 102.4 meq/L
  DBIL: 0.04 mg/dL
  GLC: 182.8 mg/dL
  IP: 9.8 mg/dL
  K: 4.4 meq/L
  LDH: 153.2 IU/L
  Na: 137.4 meq/L
  PL: 147.2 mg/dL
  RALB: 3.8 g/dL
  TBIL: 0.3 mg/dL
  TC: 93 mg/dL
  TG: 22.4 mg/dL
  TP: 5.6 g/dL
  gamma-GTP: 1.2 IU/L
24 h
  TERMINAL_BW: 177.1 g
  APTT: 16 s
  Bas: 0%
  Eos: 1.2%
  Fbg: 181.2 mg/dL
  Hb: 14 g/dL
  Ht: 42%
  Lym: 77.2%
  MCH: 21.6 pg
  MCHC: 33.2%
  MCV: 65.1 fL
  Mono: 9.6%
  Neu: 12.6%
  PT: 12.9 s
  Plat: 118.7 x10_4/uL
  RBC: 645.8 x10_4/ul
  Ret: 7.5%
  WBC: 85.4 x10_2/uL
  KIDNEY_L: 0.8 g
  KIDNEY_R: 0.9 g
  KIDNEY_TOTAL: 1.7 g
  LIVER: 8.5 g
  A/G: 2.1
  ALP: 1067.4 IU/L
  ALT: 40.2 IU/L
  AST: 85.8 IU/L
  BUN: 15.6 mg/dL
  CRE: 0.6 mg/dL
  Ca: 11 mg/dL
  Cl: 105.2 meq/L
  DBIL: 0.016 mg/dL
  GLC: 179 mg/dL
  IP: 8.6 mg/dL
  K: 5.3 meq/L
  LDH: 202.8 IU/L
  Na: 137.8 meq/L
  PL: 121.2 mg/dL
  RALB: 3.7 g/dL
  TBIL: 0.4 mg/dL
  TC: 68.2 mg/dL
  TG: 42.6 mg/dL
  TP: 5.5 g/dL
  gamma-GTP: 1.2 IU/L
